The text below walks through data of patent US4898863A, “Heterocyclic carboxamides” (ICI Americas Inc., priority 1986, dated 1990).

In one data set the test system is leukotriene LTD4. Briefly: in vivo guinea-pig aerosol test (leukotriene LTD4 challenge, time of onset of breathing changes). The settings on record: Cavia porcellus, oral, read-out: effective dose following oral administration.
Data set [1] can be described thus: overt toxicity / untoward side-effects in dosed laboratory animals. It counts as in vivo, guinea-pig.

Consider `COc1cc(C(=O)NS(=O)(=O)c2ccccc2C)ccc1Cn1cc(CCC(=O)N2CCCC2)c2ccc(C(=O)NCC3CCCC3)cc21` [Example 8, N-[4-[6-(N-Cyclopentylmethylcarbamoyl)-3-[2-(pyrrolidinocarbonyl)ethyl]indol-1-ylmethyl]-3-methoxybenzoyl]-2-methylbenzesulphonamide], for which, in the data set with leukotriene LTD4, the minimal effective dose was 2000 µmol/kg. Besides, in data set [1], the “oral dose showing no sign of overt toxicity” value was found to be 30 mmol/kg.
